Assay results as given in ChEMBL document CHEMBL1201862, “PubChem BioAssay data set” (2004).
Active and inactive are the calls of the source.

Legend:
[1] = inhibitors of Vif binding to APOBEC3G peptide, primary screen, biochemical, TR-FRET, GST-Vif 1-94, biotin-A3G peptide, dose response retest (AID 1117319); type: functional;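 further: TR-FRET signal of purified GST-Vif binding a biotinylated A3G peptide; inhibitors lower the FRET signal by blocking Vif and A3G binding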
[2] = THP-1 cell cytotoxicity, dose response, cytotoxicity control for Vif-APOBEC3G degradation inhibitor project, THP-1 cells (AID 1117359); type: functional; conditions: Human immunodeficiency virus 1, THP-1
[3] = biological target: Aryl hydrocarbon receptor (Homo sapiens, UniProt P35869); experiment: Luminescence-based cell-based high throughput dose response assay for activators of the Aryl Hydrocarbon Receptor (AHR). [Related pubchem assays: 2796 (Primary screen (AHR activators in singlicate)), 2845 (Confirmation screen (AHR activators in triplicate)), 434939 (Counterscreen (PXR activators in triplicate)), 2804 (Summary (AHR activators))]; type: ADME
Sequence of Aryl hydrocarbon receptor (P35869 whole entry): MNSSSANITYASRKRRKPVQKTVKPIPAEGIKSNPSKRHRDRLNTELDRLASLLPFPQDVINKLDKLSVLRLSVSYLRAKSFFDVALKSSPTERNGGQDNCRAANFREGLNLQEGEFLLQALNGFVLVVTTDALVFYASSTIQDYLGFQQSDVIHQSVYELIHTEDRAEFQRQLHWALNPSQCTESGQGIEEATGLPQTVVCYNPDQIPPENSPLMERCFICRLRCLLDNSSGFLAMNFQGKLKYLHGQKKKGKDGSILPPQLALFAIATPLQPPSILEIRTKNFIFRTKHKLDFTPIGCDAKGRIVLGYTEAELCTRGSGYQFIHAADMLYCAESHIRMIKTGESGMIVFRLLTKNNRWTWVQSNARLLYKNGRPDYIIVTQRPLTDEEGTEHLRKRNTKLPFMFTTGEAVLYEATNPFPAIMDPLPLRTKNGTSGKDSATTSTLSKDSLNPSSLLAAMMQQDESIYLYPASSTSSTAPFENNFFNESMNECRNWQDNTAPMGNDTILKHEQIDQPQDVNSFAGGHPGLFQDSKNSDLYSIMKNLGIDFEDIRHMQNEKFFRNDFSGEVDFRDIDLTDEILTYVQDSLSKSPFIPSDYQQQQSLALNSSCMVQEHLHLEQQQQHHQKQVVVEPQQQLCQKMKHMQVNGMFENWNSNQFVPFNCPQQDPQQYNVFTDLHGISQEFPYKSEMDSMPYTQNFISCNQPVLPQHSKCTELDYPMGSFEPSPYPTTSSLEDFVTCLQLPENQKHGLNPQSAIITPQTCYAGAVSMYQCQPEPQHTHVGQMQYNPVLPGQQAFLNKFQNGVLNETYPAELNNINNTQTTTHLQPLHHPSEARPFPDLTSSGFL

[4] = biological target: Ephrin type-A receptor 4 (Mus musculus, UniProt Q03137); experiment: inhibitors of EphA4 binding to KYL peptide, primary screen, biochemical, colorimetric, mouse EphA4 (AID 689); type: functional
Sequence of Ephrin type-A receptor 4 (Q03137 whole entry, the tested form may be a part): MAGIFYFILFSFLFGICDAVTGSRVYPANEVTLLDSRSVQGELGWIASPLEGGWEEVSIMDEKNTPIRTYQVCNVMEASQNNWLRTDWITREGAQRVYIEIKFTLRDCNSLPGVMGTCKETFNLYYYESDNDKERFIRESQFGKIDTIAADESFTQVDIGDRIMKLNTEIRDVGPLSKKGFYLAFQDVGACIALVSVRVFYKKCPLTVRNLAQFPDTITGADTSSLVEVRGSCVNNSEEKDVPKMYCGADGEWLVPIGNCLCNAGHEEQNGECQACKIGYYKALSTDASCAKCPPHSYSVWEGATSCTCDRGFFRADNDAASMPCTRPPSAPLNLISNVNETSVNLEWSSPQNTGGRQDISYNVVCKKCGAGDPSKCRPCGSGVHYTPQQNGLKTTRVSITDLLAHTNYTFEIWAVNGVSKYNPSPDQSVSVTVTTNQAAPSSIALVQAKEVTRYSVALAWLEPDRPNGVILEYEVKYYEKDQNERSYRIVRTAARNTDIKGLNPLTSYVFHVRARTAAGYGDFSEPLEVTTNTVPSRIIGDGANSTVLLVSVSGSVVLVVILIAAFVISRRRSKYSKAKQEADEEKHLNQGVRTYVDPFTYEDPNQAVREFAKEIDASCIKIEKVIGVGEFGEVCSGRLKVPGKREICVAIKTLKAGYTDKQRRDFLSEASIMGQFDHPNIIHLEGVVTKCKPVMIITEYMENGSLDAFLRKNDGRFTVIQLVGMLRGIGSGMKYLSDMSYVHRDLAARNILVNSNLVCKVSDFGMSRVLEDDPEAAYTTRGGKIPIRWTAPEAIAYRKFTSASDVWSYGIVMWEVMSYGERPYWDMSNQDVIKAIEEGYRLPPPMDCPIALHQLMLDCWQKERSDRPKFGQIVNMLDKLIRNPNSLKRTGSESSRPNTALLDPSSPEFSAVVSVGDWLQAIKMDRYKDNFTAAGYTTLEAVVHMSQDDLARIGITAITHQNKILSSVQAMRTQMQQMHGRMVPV

[5] = test system: CHO; experiment: cytotoxicity in TLR9-MyD88 CHO cells, dose response, cytotoxicity control for TLR9-MyD88 binding inhibitor project, cell-based, luminescence (AID 588339); type: functional, hamster; conditions: Cricetulus griseus;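 further: CHO cells stably coexpressing TLR9 and MyD88 fusions from primary screen; compound exposure lasted 48 hours before viability readout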
[6] = biological target: T1, Zinc finger protein mex-5 (Caenorhabditis elegans, UniProt Q9XUB2); experiment: MEX-5/TCR-2 RNA interaction inhibitors, dose response, biochemical, C. elegans, fluorescence polarization (AID 1960)
T1 sequence (Q9XUB2 whole entry): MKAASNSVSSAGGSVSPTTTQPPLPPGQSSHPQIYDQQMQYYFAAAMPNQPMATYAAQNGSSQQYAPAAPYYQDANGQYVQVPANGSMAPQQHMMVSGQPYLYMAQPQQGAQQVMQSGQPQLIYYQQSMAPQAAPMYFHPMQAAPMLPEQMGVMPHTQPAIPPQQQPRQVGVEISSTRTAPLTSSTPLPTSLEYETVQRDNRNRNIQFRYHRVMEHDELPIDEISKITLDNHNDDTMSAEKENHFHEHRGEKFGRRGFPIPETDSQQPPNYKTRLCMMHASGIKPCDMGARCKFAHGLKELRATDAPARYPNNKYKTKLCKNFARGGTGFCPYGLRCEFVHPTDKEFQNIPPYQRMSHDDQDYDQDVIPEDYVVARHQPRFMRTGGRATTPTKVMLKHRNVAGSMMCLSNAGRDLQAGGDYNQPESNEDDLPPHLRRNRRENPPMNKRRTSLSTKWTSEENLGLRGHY

[7] = biological target: T2, RNA-binding protein pos-1 (Caenorhabditis elegans, UniProt G5EF15); experiment: inhibitors of POS-1/mex-3 RNA binding, dose response, biochemical, fluorescence polarization (AID 1964);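 further: purified POS-1 fused to maltose binding protein made in E. coli; potency of compounds blocking POS-1 binding to fluorescent RNA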
T2 sequence (G5EF15 whole entry): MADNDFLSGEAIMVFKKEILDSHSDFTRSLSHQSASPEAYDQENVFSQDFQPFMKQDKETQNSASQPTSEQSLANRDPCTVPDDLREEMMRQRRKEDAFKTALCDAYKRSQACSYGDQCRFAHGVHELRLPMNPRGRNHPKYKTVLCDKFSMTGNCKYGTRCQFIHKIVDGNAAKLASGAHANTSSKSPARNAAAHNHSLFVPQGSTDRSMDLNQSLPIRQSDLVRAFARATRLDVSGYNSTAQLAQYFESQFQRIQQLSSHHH

[8] = biological target: Beta Lactamase (Pseudomonas aeruginosa, UniProt Q932Y6); experiment: beta-lactamase reporter inhibitor potency, dose response, artefact control for TLR9-MyD88 binding inhibitor project, BLA reporter cells, FRET fluorescence (AID 588341); type: cell-based;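 further: cell based assay in CHO-K1 cells stably expressing beta-lactamase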
Sequence of Beta Lactamase (Q932Y6 whole entry): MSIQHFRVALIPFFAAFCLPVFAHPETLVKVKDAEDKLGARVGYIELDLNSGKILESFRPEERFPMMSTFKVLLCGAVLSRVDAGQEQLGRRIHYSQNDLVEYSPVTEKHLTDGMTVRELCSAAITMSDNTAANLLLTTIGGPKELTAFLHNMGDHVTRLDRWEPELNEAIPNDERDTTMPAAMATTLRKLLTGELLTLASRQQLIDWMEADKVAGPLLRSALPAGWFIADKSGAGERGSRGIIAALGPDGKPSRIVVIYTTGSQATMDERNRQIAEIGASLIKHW

[9] = P. falciparum Dd2 growth inhibitors, dose response, SYBR Green, dry powder samples (AID 1159566); type: functional, cell-based;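 further: potency for growth inhibition with lower SYBR green DNA signal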
[10] = P. falciparum ATP4 D1247Y mutant growth inhibitors, dose response, NITD609-resistant line, SYBR Green, dry powder (AID 1159571); type: functional, cell-based;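 further: parasites synchronized at ring stage by sorbitol before testing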
[11] = P. falciparum Dd2 growth inhibitors, dose response, SYBR Green, cherry-picked samples (AID 1159567); type: functional, cell-based
[12] = P. falciparum 3D7-ScDHODH growth inhibitors, dose response, SYBR Green, dry powder samples (AID 1159570); type: functional, cell-based;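 further: parasite growth measured after 72 hours of compound exposure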
[13] = SNU-C1 cell viability reduction, dose response, CellTiter-Glo luminescence (AID 1117323); type: functional, cell-based
[14] = Concentration-dependent survival of SW480 colon cancer line, luminescence detection with CellTiter-Glo, half-maximal inhibitory concentration (AID 1117338); type: functional
[15] = cytotoxicity toward HT-29 cells – cell-based, CellTiter-Glo luminescence, IC50, dose response (AID 1117330); type: functional
[16] = cytotoxicity toward Colo320 cells – cell-based, CellTiter-Glo luminescence, IC50, dose response (AID 1117334); type: functional; conditions: COLO 320
[17] = cytotoxicity toward HCT116 cells – cell-based, CellTiter-Glo luminescence, IC50, dose response (AID 1117332); type: functional; conditions: HCT-116
[18] = RKO cell viability reduction, dose response, CellTiter-Glo luminescence (AID 1117322); type: functional
[19] = CellTiter-Glo luminescent dose response of DLD-1 viability loss (AID 1117352); type: functional
[20] = biological target: T3, Cytochrome P450 2C19 (Homo sapiens, UniProt P33261); experiment: qHTS Assay for Inhibitors and Substrates of Cytochrome P450 2C19. [Related pubchem assays: 410 ]; type: ADME; conditions: read-out: Potency
T3 sequence (P33261 whole entry): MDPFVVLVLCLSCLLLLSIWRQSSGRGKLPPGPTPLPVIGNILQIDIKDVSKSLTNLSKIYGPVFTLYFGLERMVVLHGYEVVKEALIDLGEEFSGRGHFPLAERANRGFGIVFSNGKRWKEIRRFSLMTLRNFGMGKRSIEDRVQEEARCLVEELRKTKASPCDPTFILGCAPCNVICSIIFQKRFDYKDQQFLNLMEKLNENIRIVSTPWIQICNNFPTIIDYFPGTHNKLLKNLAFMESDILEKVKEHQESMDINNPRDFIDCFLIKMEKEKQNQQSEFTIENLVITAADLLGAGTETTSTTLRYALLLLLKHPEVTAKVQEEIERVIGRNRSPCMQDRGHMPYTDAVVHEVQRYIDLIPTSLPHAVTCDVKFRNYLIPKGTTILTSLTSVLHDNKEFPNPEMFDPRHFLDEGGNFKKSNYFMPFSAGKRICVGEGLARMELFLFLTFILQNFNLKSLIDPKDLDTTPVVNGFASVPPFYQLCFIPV

[21] = biological target: T3, Cytochrome P450 2C19; experiment: Cytochrome panel assay with activity outcomes. Panel member name: p450-cyp2c19 Compounds with AC50 equal or less than 10 uM are considered active; type: functional; conditions: read-out: AC50
[22] = biological target: Cytochrome P450 2C9 (Homo sapiens, UniProt P11712)
Sequence of Cytochrome P450 2C9 (P11712 whole entry, the tested form may be a part): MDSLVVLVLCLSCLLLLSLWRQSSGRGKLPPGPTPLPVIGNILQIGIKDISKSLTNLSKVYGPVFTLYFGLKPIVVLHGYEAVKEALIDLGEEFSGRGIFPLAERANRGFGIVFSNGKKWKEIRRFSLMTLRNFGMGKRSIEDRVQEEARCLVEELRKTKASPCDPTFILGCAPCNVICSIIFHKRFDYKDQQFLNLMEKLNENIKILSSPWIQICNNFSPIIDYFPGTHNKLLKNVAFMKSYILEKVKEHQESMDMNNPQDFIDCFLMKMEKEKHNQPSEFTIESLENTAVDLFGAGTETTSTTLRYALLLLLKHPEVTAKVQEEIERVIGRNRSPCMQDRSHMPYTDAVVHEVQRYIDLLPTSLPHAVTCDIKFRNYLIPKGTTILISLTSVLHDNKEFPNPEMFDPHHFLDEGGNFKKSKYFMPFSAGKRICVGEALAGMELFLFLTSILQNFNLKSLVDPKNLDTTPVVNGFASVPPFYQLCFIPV

[23] = biological target: T4, Oxysterols receptor LXR-beta (Homo sapiens, UniProt P55055); experiment: LXR agonists, Gal4 luciferase reporter, dose response, counter-screen for ssDAF-12 agonist project, cell-based, luminescence, HEK293, S. stercoralis campaign (AID 720737); type: functional; conditions: read-out: IC50 (the source's name)
T4 sequence (P55055 whole entry): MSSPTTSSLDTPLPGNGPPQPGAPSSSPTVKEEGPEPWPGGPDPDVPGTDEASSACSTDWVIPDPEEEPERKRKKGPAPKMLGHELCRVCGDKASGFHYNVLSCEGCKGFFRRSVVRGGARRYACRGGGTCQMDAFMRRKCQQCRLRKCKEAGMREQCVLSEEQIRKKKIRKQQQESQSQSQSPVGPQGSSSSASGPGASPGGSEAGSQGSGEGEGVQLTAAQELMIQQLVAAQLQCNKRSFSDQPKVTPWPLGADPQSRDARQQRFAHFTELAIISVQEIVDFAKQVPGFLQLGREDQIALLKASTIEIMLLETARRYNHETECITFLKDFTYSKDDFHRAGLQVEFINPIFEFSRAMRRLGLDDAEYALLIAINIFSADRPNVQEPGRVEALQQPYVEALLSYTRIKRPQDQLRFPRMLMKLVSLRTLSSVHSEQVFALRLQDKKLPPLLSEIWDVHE

[24] = Luminescence-based cell-based high throughput dose response assay to identify activators of the DAF-12 from the parasite S. stercoralis (ssDAF-12).; type: functional
[25] = inhibitors of HIV Env-driven cell fusion, dose response, cherry-pick (AID 652057); type: functional, cell-based
[26] = biological target: T5, Microphthalmia-associated transcription factor (Homo sapiens, UniProt O75030); experiment: TRPM1 promoter luciferase signal decrease, dose response, MITF inhibitor project, cell-based, SK-MEL-5, cherry-picked, set 3 (AID 493073); type: functional
T5 sequence (O75030 whole entry): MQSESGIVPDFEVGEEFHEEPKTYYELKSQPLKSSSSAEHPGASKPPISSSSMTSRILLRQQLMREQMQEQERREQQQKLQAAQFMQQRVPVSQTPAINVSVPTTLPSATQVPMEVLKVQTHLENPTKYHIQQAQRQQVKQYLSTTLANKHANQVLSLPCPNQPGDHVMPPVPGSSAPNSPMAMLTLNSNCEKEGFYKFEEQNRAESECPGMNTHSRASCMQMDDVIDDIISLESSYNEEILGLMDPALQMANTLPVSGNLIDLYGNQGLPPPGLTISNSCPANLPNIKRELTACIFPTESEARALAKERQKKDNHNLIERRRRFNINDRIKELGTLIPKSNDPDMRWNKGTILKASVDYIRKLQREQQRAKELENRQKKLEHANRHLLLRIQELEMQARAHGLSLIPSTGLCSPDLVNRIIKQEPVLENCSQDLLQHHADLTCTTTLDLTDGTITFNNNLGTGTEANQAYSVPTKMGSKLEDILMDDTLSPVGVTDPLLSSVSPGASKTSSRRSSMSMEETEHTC

[27] = biological target: Protein Tat (Human immunodeficiency virus type 1 group M subtype B (isolate HXB2)(HIV-1), UniProt P04608); type: functional;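 further: tat binding to TAR RNA read out by fluorescence polarization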
Sequence of Protein Tat (P04608 whole entry, the tested form may be a part): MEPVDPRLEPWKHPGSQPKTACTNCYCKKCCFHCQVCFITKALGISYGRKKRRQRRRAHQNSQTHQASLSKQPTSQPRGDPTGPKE

[28] = inhibitors of clade B AD8 Env fusion, dose response, cell-based, cherry-pick (AID 652062); type: functional;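 further: luciferase signal from cell-cell fusion driven by HIV-1 clade B AD8 Env; potency is for inhibitors of fusion seen as a drop in luminescence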
[29] = CEM21 lymphoblast cell cytotoxicity, dose response, cytotoxicity control for viral fusion inhibitor project, CellTiter-Glo luminescence, cherry-picked (AID 652042); type: functional, cell-based;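 further: potency for signal decrease meaning cytotoxicity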
[30] = off-target signal loss in HeLa-CEM21 co-culture – HeLa F-luc CTL cells, cherry-picked, counter-screen for HIV-1 Env fusion inhibitor project, dose response (AID 652040); type: functional, cell-based;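 further: potency for signal decrease marking cytotoxic or nonspecific inhibition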
[31] = biological target: T6, Heat shock factor protein 1 (Mus musculus, UniProt P38532); experiment: inhibition of MG132-induced HSE-luciferase signal, confirmation, cell-based, NIH3T3, luminescence, dose retest (AID 2382); type: functional;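 further: NIH3T3 fibroblasts with HSF1-driven luciferase reporter stressed by proteasome inhibitor MG132; luminescence from HSF1-driven luciferase expression after 8 hours of MG132 stress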
T6 sequence (P38532 whole entry): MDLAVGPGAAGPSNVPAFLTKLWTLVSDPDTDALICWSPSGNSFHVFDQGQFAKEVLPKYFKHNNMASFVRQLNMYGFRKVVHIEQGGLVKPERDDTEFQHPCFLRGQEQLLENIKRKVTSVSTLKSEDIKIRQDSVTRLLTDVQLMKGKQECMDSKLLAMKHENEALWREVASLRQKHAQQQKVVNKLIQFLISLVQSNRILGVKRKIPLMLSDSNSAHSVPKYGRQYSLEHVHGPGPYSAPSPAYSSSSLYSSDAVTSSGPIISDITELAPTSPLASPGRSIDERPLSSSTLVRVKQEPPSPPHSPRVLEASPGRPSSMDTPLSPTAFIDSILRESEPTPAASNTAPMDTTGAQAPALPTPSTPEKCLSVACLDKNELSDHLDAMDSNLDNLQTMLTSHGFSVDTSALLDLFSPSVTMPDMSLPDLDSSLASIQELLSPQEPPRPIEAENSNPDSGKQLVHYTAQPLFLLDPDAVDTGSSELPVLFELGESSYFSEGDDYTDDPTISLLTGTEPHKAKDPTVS

[32] = ZM109 Env clade C HIV-1 fusion inhibitors, dose response, HeLa effector, CEM target cells, luciferase, cherry-pick (AID 652058); type: functional, cell-based

With `Cc1cc(C)cc(NC2=CC(=O)CC(c3ccco3)C2)c1` (stereo not given) the IC50 [1] was > 60.7 µM (active) and the CC50 [2] was 25.1 µM (active).
With `Cc1c(-c2cc[nH]n2)cc(NC(=O)c2ccc(Cl)cc2)c(=O)n1N` the EC50 [3] was 1.17 µM (active).
With `CN(C)c1ccc(/C=C/C(=O)c2cccc(Br)c2)cc1` the IC50 [4] was > 100 µM (not active), the IC50 [5] was > 49.7 µM (inactive) and the EC50 [6] was > 300 µM (inconclusive). The EC50 [7] was > 300 µM (not active) and the IC50 [8] was 5.6 µM (active).
With `O=C(Cc1ccccc1)N1CC(=O)N2[C@H](CO)[C@H](c3ccc(C#Cc4ccccc4)cc3)[C@H]2C1` the AC50 [9] was 0.0291 µM (active), the AC50 [10] was 0.0288 µM (active) and the AC50 [11] was < 0.3 µM (active). The AC50 [12] was 0.0554 µM (active).
With `OC[C@@H](O)[C@H](O)[C@H](O)[C@@H](O)CO` [GALACTITOL] the IC50 [13] was > 20 µM (inactive), the IC50 [14] was > 20 µM (inactive) and the IC50 [15] was > 20 µM (inactive). The IC50 [16] was > 20 µM (inactive), the IC50 [17] was > 20 µM (inactive) and the IC50 [18] was > 20 µM (inactive). The IC50 [19] was > 20 µM (inactive).
With `O=C(C1CCCCC1)N1CC(=O)N2CCc3ccccc3[C@@H]2C1` [PRAZIQUANTEL, (R)-] the AC50 [20] was 25.1 µM (inconclusive), the AC50 [21] was 5.01 µM (inconclusive) and the AC50 [22] was “inconclusive”.
With `CC1CCCCN1CCNC(=O)CC1Oc2ccccc2NC1=O` (stereo not given) the EC50 [23] was > 67.5 µM (inactive) and the IC50 [24] was > 67.5 µM (inactive).
For `O=S(=O)(NNc1ncc(C(F)(F)F)cc1Cl)c1ccc(F)cc1F`, the EC50 [3] was 3.38 µM (active).
For `COc1ccc(NC(=O)NC(C)C2CC3CCC2C3)cc1` (stereo not given), the EC50 [23] was > 67.5 µM (inactive) and the IC50 [24] was > 67.5 µM (inactive).
With `COc1cc(C(=O)Nc2cccc(-c3nc4ncccc4o3)c2C)cc(OC)c1OC` the IC50 [1] was > 100 µM (active).
For `CN(c1ccc2nc3ccccc3c(=O)n2n1)C1CCCCC1`, the AC50 [25] was 2.13 µM (active), the AC50 [26] was 1.29 µM (active) and the IC50 [27] was > 100 µM (active). The AC50 [28] was 6.5 µM (active), the AC50 [29] was 26.9 µM (active) and the CC50 [2] was 36.6 µM (active). The AC50 [30] was 6.41 µM (active), the EC50 [31] was < 0.16 µM (active) and the AC50 [32] was 31.1 µM (active).
In the case of `FC(F)(F)c1cc(-c2ccco2)nc(NCc2cccnc2)n1`, the IC50 [27] is reported as > 100 µM (active).
For `Cc1ccc(CNC(=O)CN2CCC(C(N)=O)CC2)cc1`, the IC50 [4] was > 100 µM (not active).
In the case of `COc1cc2c(cc1OC)-c1c(O)c(OC)cc3c1[C@@H](C2)N(C)CC3`, the AC50 [20] is reported as 25.1 µM (inconclusive).
